According to publication PMC9221018, “Sulfonamide-Derived Dithiocarbamate Gold(I) Complexes Induce the Apoptosis of Colon Cancer Cells by the Activation of Caspase 3 and Redox Imbalance” (Biomedicines, 2022):

Experiments:
[1] = system: differentiated Caco-2 cells; assay: MTT cytotoxicity assay in differentiated Caco-2 cells (healthy cell model); format: cell-based, human; conditions: for decrease of cell viability: complexes at their IC50 (1 1.14 μM, 3 1.7 μM, 8 7.22 μM, 9 8.56 μM), 72 h; for IC50: treatment for 72 h
Procedure: (§1) The human Caco-2 cell line (TC7 clone) was kindly provided by Dr. Edith Brot-Laroche (Université Pierre et Marie Curie-Paris 6, UMR S 872, Les Cordeliers, France). Human epithelial fibroblast cells (NHDF-Ad, Lonza®®, Porriño, Spain) were kindly provided by Dr. Gracia Mendoza (Aragon Health Research Institute, IIS Aragón, Spain). Caco-2 cells (passages 40–70) and fibroblasts (passages 10–30) were maintained in a humidified atmosphere of 5% CO2 at 37 °C and grown in medium following the method used by Quero et al.. The Caco-2 cells were sub-cultured in 25 cm^2 plastic flasks at a density of 1.2 × 10^4 cells/cm^2, while the fibroblasts were sub-cultured on 75 cm^2 plastic flasks at a density of 1 × 10^4 cells/cm^2. The culture medium was replaced every 2 days.
(§2) The gold complexes were diluted in dimethyl sulfoxide (DMSO) as a 10 mM stock solution, and then diluted in cell culture medium at the desired concentrations.
(§3) For the cytotoxicity screening assays, Caco-2 cells were seeded in 96-well plates at a density of 4 × 10^3 cells/well. The culture medium was replaced with medium containing the drug panel 24 h post-seeding, and the cells were incubated for 24, 48 and 72 h. […] In differentiated Caco-2 and fibroblasts, culture medium containing metal gold complexes was added 15 days post-seeding, and the cells were incubated for 72 h. The antiproliferative effect was measured using an MTT assay, as previously described by Mármol et al.. The absorbance at 540/620 nm was measured using a SPECTROstar Nano (BMG Labtech, Ortenberg, Germany). In order to determine the selectivity index (SI), the IC50 value of the differentiated Caco-2 cells was divided by IC50 value in undifferentiated Caco-2, obtaining the ratio of the normal/cancerous cells’ toxicity.

Caco-2 cells [2] = assay: Mitochondrial membrane potential assay (DilC1); format: cell-based, human; conditions: complex 1 1.14 µM 48 h, complex 8 7.22 µM 72 h
Procedure: Caco-2 cells were seeded in 75 cm^2 flasks at a density of 1 × 10^4 cells/cm^2, and the 24-h post-seeding medium was replaced with medium containing the drug panel; it was then incubated for 48 or 72 h. The cells were then washed twice and resuspended in PBS at a concentration of 10^6 cells/mL before incubation with 5 µL of 10 µM 1,1′,3,3,3′-hexamethylindodicarbo-cyanine iodide (DilC1). After 15 min of incubation at 37 °C, 400 µL PBS was added, and the fluorescence was measured by flow cytometry at an excitation wavelength of 633 nm and an emission of 658 nm with a Beckman Coulter Gallios (Brea, CA, USA) equipped with a blue solid diode laser (488 nm) and a red solid diode laser (635 nm).

[3] = system: Human epithelial fibroblast cells (NHDF-Ad); assay: MTT viability assay in human epithelial fibroblasts; format: cell-based; conditions: complexes at their IC50 (1 1.14 μM, 3 1.7 μM, 8 7.22 μM, 9 8.56 μM), 72 h
Procedure: as §1, §2, §3

[4] = molecular target: T1, recombinant human enzyme TrxR1 (Homo sapiens, UniProt Q16881); assay: Thioredoxin reductase 1 (TrxR1) activity assay (DTNB); format: biochemical; conditions: recombinant TrxR1, complexes at their IC50 values (1 1.14 μM, 8 7.22 μM), 5 min incubation
T1 construct: purchased Sigma SRP 6081
T1 sequence (Q16881 161-647 limits assumed): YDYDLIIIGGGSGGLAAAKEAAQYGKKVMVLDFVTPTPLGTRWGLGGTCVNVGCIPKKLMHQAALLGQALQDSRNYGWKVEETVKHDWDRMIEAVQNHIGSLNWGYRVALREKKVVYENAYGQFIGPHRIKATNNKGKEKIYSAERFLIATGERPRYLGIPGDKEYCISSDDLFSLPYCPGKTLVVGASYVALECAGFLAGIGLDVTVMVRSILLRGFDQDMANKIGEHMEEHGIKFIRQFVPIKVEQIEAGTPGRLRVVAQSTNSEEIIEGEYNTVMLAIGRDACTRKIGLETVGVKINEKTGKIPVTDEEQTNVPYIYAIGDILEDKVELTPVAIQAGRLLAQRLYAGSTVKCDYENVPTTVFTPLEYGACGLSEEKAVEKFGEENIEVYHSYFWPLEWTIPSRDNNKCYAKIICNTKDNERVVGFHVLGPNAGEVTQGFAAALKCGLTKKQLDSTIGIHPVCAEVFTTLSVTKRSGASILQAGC
Procedure: The in vitro interaction of metal complexes with the enzyme thioredoxin reductase was analyzed using a thioredoxin reductase assay kit (Sigma, CS0170, St Louis, MO, USA). The procedure instructions in the kit were followed, though the rat liver thioredoxin reductase was replaced with recombinant human enzyme TrxR1 (SRP 6081, Sigma, St Louis, MO, USA). The reaction was initiated by adding DTNB (100 mM), and conversion to TNB^− was monitored at 412 nm every 30 s for 22 min using a SPECTROstar Nano (BMG Labtech, Ortenberg, Germany) multiplate reader. The results were expressed as a percentage of the TrxR activity with respect to the control.

Caco-2 cells [5] = assay: Apoptosis measurement, annexin V-FITC/PI flow cytometry; format: cell-based, human; conditions: complex 1 1.14 µM 48 h, complex 8 7.22 µM 72 h
Procedure: Caco-2 cells were seeded in 75 cm^2 flasks at a density of 1 × 10^4 cells/cm^2, then exposed to the drug panel for 48 or 72 h depending on the compound tested, and them stained with annexin V-FITC and sodium iodide propidio according to the manufacturer’s instructions. The cells were then transferred to flow cytometry tubes and washed twice with phosphate-buffered saline (PBS); they were then resuspended in 100 µL annexing V binding buffer (100 mM Hepes/NaOH pH 7.4, […], 2.5 mM CaCl2). In total, 5 µL annexin V-FITC and 5 µL propidium iodide (PI) were added to the tube. After 15 min of incubation at room temperature protected from light, 400 µL annexin binding buffer was added to each sample, and the signal intensity was analyzed within 1 h with Beckman Coulter Gallios (Brea, CA, USA). The data were analyzed with BD FACSDivaTM [59].

Caco-2 cells [6] = assay: Propidium iodide DNA staining and cell cycle analysis; format: cell-based, human; conditions: complex 1 1.14 µM 48 h, complex 8 7.22 µM 72 h
Procedure: Once the cells were seeded in 25 cm^2 flasks at a density of 1 × 10^4 cells/cm^2, they were exposed, after 24 post-sendings, to the drug panel for 48 or 72 h. The cells were fixed according to the previously described methods before being stained with 50 μg/mL PI solution. The signal intensity was analysed with a Beckman Coulter Gallios (Brea, CA, USA) equipped with a blue solid diode laser (488 nm) and a red solid diode laser (635 nm), collecting fluorescence with a 620 nm-long pass filter.

| Molecule | decrease of cell viability [1] | IC50 [1] | mitochondrial depolarization (cells with disturbed MMP) (Caco-2 cells [2]) | decrease of cell viability [3] | decrease in TrxR activity [4] | induction of apoptosis (annexin V/PI) (Caco-2 cells [5]) | cell cycle distribution (Caco-2 cells [6]) |
| --- | --- | --- | --- | --- | --- | --- | --- |
| O=S(=O)(NC(=S)[S][Au][PH](c1ccccc1)(c1ccccc1)c1ccccc1)c1ccccc1 [Complex 1, [Au(S2CNHSO2C6H5)(PPh3)]] | did not compromise the viability | 12.7 ± 0.47 µM | induced similar mitochondrial depolarization | did not compromise the viability | around 80% | capable of inducing apoptosis | significantly increased the number of cells arrested in the G1 phase |
| [Au(S2CNHSO2-p-Me-C6H4)(IMePropargyl)] [Complex 8] | did not compromise the viability | 46.6 ± 3.26 µM | induced similar mitochondrial depolarization | did not compromise the viability | around 80% | capable of inducing apoptosis | significantly increased the number of cells arrested in the G1 phase |
